From patent publication US20160326098A1, “Pharmaceutically Active Compound for Use as Anti-inflammatory Agent” (Pax Forschung GmbH, priority 2013, published 2016)

Tested on: nitrite/nitrate (NOx)
Assay: Nitrite/nitrate level, colitis animals, comparison with GM-20 (FIG. 35)
Type: in vivo, rats
Conditions: 1.11 mmol/kg body weight, vs sham control group P
Procedure: The levels of plasma nitrite/nitrate (NOx), stable end products of NO were measured by the Griess reaction. This assay depends on the reduction of nitrate to nitrite, which is then converted into a colored azo dye compound that is detected spectrophotometrically at 540 nm.
The above-described clinical studies were repeated with animals having colitis which was induced as described above. 20 animals (rats) were randomly divided into four groups, wherein group L served as sham-operated control, having no colitis, group M served as second control having colitis but receiving no further treatment, group N having colitis and being treated with 1.11 mmol/kg body weight of ASS and group O having colitis and being treated with 1.11 mmol/kg of the compound according to the invention. One day after the animals received the enema with TNBS (40 mg/kg i.c.), wherein the animals of group L only received the respective solvent, the animals of group N and O were treated with ASS and the compound according to the invention, respectively. The other animals only received the respective solvent again. Two days after the enema the effects of the treatment were determined by measurement of body weight, blood gas analysis and biopsy. […] Surgery was performed to allow registration of the hemodynamic parameters at 1 h intervals for 6 h (cardiac output [CO] data were measured only at the end of the experiments). […] In addition, fluorescence confocal endomicroscopy was performed to examine the microvasculature and morphologic changes of the mucosa of the distal colon, and full-thickness tissue samples and venous blood samples were taken to determine the biochemical changes in the colon and plasma.
The tests were conducted according to the above described protocol. […] Comparative compound GM-20 is described in the state of the art as being suitable for the therapeutic treatment pathologic disorders characterized by degranulation of the mast cells caused by immunogenic hyperstimulation (see U.S. Pat. No. 5,506,224) The nitrite/nitrate level was measured as described above.

In the case of `CC(=O)Oc1ccccc1C(=O)NCCO` [GM-20], the nitrite/nitrate level is reported as “increased nitrite/nitrate level”.
